pIC50: −log10 of the molar value.
The molecules below were run on Aβ42 production (assay: Measurement of amyloid β production inhibition rate using primary nerve cell). Conditions: Rattus norvegicus, 72 h, primary nerve cells from cerebral cortex of SD rat fetus; cultured 3 days with compound; sandwich ELISA BNT77-BC05 of culture supernatant; read-out: Aβ42 production inhibitory activity IC50.
Format: cell-based
Method: (1) Measurement of Amyloid β Production Inhibition Rate Using Primary Nerve Cell
The primary nerve cells were collected from the cerebral cortex of rat fetus (CLEA Japan, Inc.: SD rat, fetal life 17 days of age), and suspended in a neurobasal medium containing B27 supplement, L-glutamine, penicillin-streptomycin (manufactured by Invitrogen) at 500,000 cells/mL. Then, the suspension was seeded in poly L-lysine-coated 96 well plate (manufactured by SUMITOMO BAKELITE) by 100 μL, and cultured at 37° C., 5% CO2 for 7 days. The medium was completely removed, and a new neurobasal medium was added at 75 μL/well. Thereto was added (75 μL/well) a neurobasal medium supplemented with a 2-fold measurement concentration of an evaluation target compound, and the cells were cultured for 3 days. The culture supernatant was collected from each well, diluted as appropriate, applied to sandwich ELISA between BNT77 antibody-BA27 antibody (for Aβ40) and sandwich ELISA between BNT77 antibody-BC05 antibody (for Aβ42), and the amounts of Aβ40 and Aβ42 were measured.
The amyloid β production inhibition rate (%) of the compound was calculated by the following formula.
(1−(amyloid β production amount with addition of compound)/(amyloid β production amount without addition of compound))×100

| SMILES | pIC50 |
| --- | --- |
| COc1cc(-c2nc3n(n2)CCCC3c2ccccc2C(F)(F)F)ccc1-c1cnc(C)o1 (centres unmarked) [Example 12, 2-[3-methoxy-4-(2-methyl-1,3-oxazol-5-yl)phenyl]-8-[2-(trifluoromethyl)phenyl]-5,6,7,8-tetrahydro[1,2,4]triazolo[1,5-a]pyridine] | 6.82 |
| COc1cc(-c2nnc3n2CCCC3Oc2ccc(Cl)c(Cl)c2)ccc1-c1cnc(C)o1 (centres unmarked) [Example 25, 8-(3,4-dichlorophenoxy)-3-[3-methoxy-4-(2-methyl-1,3-oxazol-5-yl)phenyl]-5,6,7,8-tetrahydro[1,2,4]triazolo[4,3-a]pyridine] | 7.06 |
| COc1cc(-c2nnc3n2CCC[C@@H]3c2ccc(Cl)cc2C(F)(F)F)ccc1-c1cnc(C)o1 [Example 34, (R)-(+)-8-[4-chloro-2-(trifluoromethyl)phenyl]-3-[3-methoxy-4-(2-methyl-1,3-oxazol-5-yl)phenyl]-5,6,7,8-tetrahydro[1,2,4]triazolo[4,3-a]pyridine] | 7.38 |

Other lines, results leading:

| pIC50 | SMILES |
| --- | --- |
| 7.06 | COc1cc(-c2nnc3n2CCCC3c2ccccc2C(F)(F)F)ccc1-c1cnc(C)o1 (centres unmarked) [Example 8, 3-[3-methoxy-4-(2-methyl-1,3-oxazol-5-yl)phenyl]-8-[2-(trifluoromethyl)phenyl]-5,6,7,8-tetrahydro[1,2,4]triazolo[4,3-a]pyridine] |
| 6.77 | COc1cc(-c2nnc3n2CCCCC3c2ccc(Cl)c(Cl)c2)ccc1-c1cnc(C)o1 (centres unmarked) [Example 15, 9-(3,4-dichlorophenyl)-3-[3-methoxy-4-(2-methyl-1,3-oxazol-5-yl)phenyl]-6,7,8,9-tetrahydro-5H-[1,2,4]triazolo[4,3-a]azepine] |
| 6.70 | COc1cc(-c2nnc3n2CCCC3c2ccc(F)cc2C(F)(F)F)ccc1-c1cnc(C)o1 (centres unmarked) [Example 28, 8-[4-fluoro-2-(trifluoromethyl)phenyl]-3-[3-methoxy-4-(2-methyl-1,3-oxazol-5-yl)phenyl]-5,6,7,8-tetrahydro[1,2,4]triazolo[4,3-a]pyridine] |

Same assay, conditions: primary nerve cells from cerebral cortex of SD rat fetus; cultured 3 days with compound; sandwich ELISA BNT77-BC05 of culture supernatant; read-out: Aβ42 production inhibitory activity IC50

| pIC50 | SMILES |
| --- | --- |
| 7.47 | COc1cc(-c2nnc3n2CCCC3c2ccc(Cl)c(Cl)c2)ccc1-c1cnc(C)o1 (single isomer, unassigned; (+)) [Example 2, (+)-8-(3,4-dichlorophenyl)-3-[3-methoxy-4-(2-methyl-1,3-oxazol-5-yl)phenyl]-5,6,7,8-tetrahydro[1,2,4]triazolo[4,3-a]pyridine] |
| 7.05 | COc1cc(-c2nnc3n2CCCC3c2ccc(Cl)c(Cl)c2)ccc1-c1cnc(C)o1 (centres unmarked) [Example 1, 8-(3,4-dichlorophenyl)-3-[3-methoxy-4-(2-methyl-1,3-oxazol-5-yl)phenyl]-5,6,7,8-tetrahydro[1,2,4]triazolo[4,3-a]pyridine] |
